Results published in article PMC8231113, “Protein Secondary Structure Affects Glycan Clustering in Native Mass Spectrometry” (Life, 2021).
Like-named read-outs stand apart in the source and are kept apart here.

Assays:
GII.4 Saga P dimer = GII.4 Saga P dimer (Norovirus GII.4 (human norovirus), UniProt B5BTR7); test: Native MS, specific glycan binding to P dimer after reference protein correction; design: species or system human norovirus (hNoV); settings: for Kd: read-out: KD for HBGA B
Experimental: (§1) Prior to MS analysis, purified P dimers were buffer exchanged to 150 mM ammonium acetate (Sigma-Aldrich, reagent grade ≥98%) at pH 7 via centrifugal filter units at 12,000× g at 4 °C (Vivaspin 500, MWCO 10000, Sartorius). Glycans for native MS analysis were mixed with 1 µM (per monomer) purified GII.4 Saga P dimer and 3 µM of the reference proteins at indicated concentrations. Native mass spectra were measured at room temperature in positive ion mode on a high mass modified LCT Premier mass spectrometer (Waters/Micromass, UK and MS Vision, the Netherlands) with a nano-ESI source. In house-made gold-coated electrospray capillaries were used for direct-sample infusion without any accessory chromatographic separation. The voltages and pressures were optimized for non-covalent protein complexes. The gas pressure used in the source hexapole was set between 6.5 and 6.8 × 10^−2 mbar argon optimized for minimal complex dissociation and the backing pressure of the source roughing pump was set between 7.0 and 8.5 mbar. Spectra were recorded with applied voltages for the capillary and cone of 1.20 kV and 240 V, respectively. Note that charge state distributions for P dimers were sometimes slightly shifted as was the degree of glycan clustering per charge state. These changes were highly variable and not quantifiable.
(§2) For calibration of the raw data, a 25 mg/mL cesium iodide spectrum from the same day was used. MassLynx V4.1 (Waters, Manchester, UK) was used to assign peak series to protein species and to determine the mass after minimal smoothing. Furthermore, OriginPro 2016 SR2 (OriginLab, Northampton, MA, USA) was used for spectral deconvolution and curve fitting. Correction for nonspecific protein-ligand clustering was performed as described. Corrected peak areas were averaged and normalized to the free-protein signal. Data were based on at least three independent measurements. Python code Panda and Numpy package were used to calculate the specific binding of P dimers according to the glycan clustering ratio obtained from the selected reference protein candidates. Seaborn and matplotlib.pyplot package were imported into a python script to plot the results. The module of sklearn.linear model was applied for linear regression. The matplotlib and heatmap package were used to plot the heatmap.
Data from native ESI MS measurements were translated into dissociation constants (KD values). The detailed calculations were based on the equations listed below. A protein (P) and a glycan ligand (L) form a complex through non-covalent interactions leading to a reversible association described by (Equation (1)):(1) P+L⇌PL when equilibrium is reached, the KD can be calculated directly from the concentrations via the law of mass action (Equation (2)):(2) KD=[Pfree][Lfree]/[PL]
(§3) Theoretically, the KD is calculated by measuring the concentration of the three components (Pfree, Lfree, PL) in solution. Usually, these values are only indirectly accessible because they require ligand titration up to binding saturation. However, native MS allows for the directly measurement of Pfree and PL, from which Lfree can be calculated using the input concentrations. In the present work, the non-covalent interaction was measured in the gas phase assuming identical ESI and detection efficiency for free and glycan-associated proteins, both for the analyte and the reference protein. […] For P dimers, the equations reflect glycan binding to the individual monomers assuming that binding sites on each monomer are equal and independent.
Using R described in Equation (3), the KD calculation can be re-written into Equation (4) with the known initial concentration of glycan ligand [L0] and protein [P0], adapted from Sun et al.:(3) R=PLequil∕Pequil=∑nA(PL^n+)∕n∕∑nA(P^n+)∕n (4) KD =L0−RP0/1+R/R […]

[1] = target: T1, myoglobin from equine heart (Myo) (Equus caballus, UniProt P68082); test: Native MS glycan clustering to reference protein Myo; type: binding; settings: on Myo
T1 construct: myoglobin from equine heart (Myo, CAS number 100684-32-0); purchased Sigma-Aldrich (Merck, Germany); host or cells: equine heart
T1 sequence (P68082 whole entry): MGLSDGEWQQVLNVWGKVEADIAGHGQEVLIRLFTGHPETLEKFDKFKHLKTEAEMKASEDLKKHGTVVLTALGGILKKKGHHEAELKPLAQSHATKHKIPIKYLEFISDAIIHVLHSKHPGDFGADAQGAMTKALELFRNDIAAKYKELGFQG
Experimental: as §1, §2, §3
(§4) Using R described in Equation (3), the KD calculation can be re-written into Equation (4) with the known initial concentration of glycan ligand [L0] and protein [P0], adapted from Sun et al.:(3) R=PLequil∕Pequil=∑nA(PL^n+)∕n∕∑nA(P^n+)∕n (4) KD =L0−RP0/1+R/R
(§5) For the carbohydrate-binding experiments, it was essential to keep the initial protein concentrations and pH value constant during the analysis of the protein-carbohydrate solutions. While acidification occurs in any ESI droplet, the remaining solution in the capillary changes pH over time. Therefore, accumulated spectra were obtained within 10 min after the voltages were applied to minimize the influence of pH changes during the measurements. […]

[2] = target: T2, carbonic anhydrase isozyme II from bovine erythrocytes (CA) (Bos taurus, UniProt P00921); test: Native MS glycan clustering to reference protein CA; type: binding; settings: on CA
T2 construct: carbonic anhydrase isozyme II from bovine erythrocytes (CA, CAS number 9001-03-0); purchased Sigma-Aldrich (Merck, Germany); host or cells: bovine erythrocytes
T2 sequence (P00921 whole entry): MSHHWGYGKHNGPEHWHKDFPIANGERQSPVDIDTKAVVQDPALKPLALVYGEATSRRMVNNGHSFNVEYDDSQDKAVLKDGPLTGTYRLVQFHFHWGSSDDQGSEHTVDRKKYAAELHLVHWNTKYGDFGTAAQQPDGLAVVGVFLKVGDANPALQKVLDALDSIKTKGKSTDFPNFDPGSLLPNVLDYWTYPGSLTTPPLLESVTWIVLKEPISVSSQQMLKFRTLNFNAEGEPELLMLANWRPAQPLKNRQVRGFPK
Experimental: as §1, §2, §3, §4, §5

[3] = target: T3, L-lactic dehydrogenase from rabbit muscle (LDH) (Oryctolagus cuniculus, UniProt P13491); test: Native MS glycan clustering to reference protein LDH; type: binding; settings: on LDH
T3 construct: L-lactic dehydrogenase from rabbit muscle (LDH, CAS number 9001-60-9); purchased Sigma-Aldrich (Merck, Germany); host or cells: rabbit muscle
Experimental: as §1, §2, §3, §4, §5

CC(=O)N[C@H]1C(O)O[C@H](CO)[C@@H](O)[C@@H]1O[C@@H]1O[C@H](CO)[C@H](O)[C@H](O[C@H]2O[C@H](CO)[C@H](O)[C@H](O)[C@H]2O)[C@H]1O[C@@H]1O[C@@H](C)[C@@H](O)[C@@H](O)[C@@H]1O (some centres unmarked) [HBGA B, Galα1-3(Fucα1-2)Galβ1-3GlcNAc]
specific binding after ADH based protein clustering correction (GII.4 Saga P dimer; Gb4: any listed glycan concentration, HBGA B: 500 µM): a single binding event
Kd (GII.4 Saga P dimer; correction with ref. protein ADH): 24000 ± 16000 µM
Kd (GII.4 Saga P dimer; correction with ref. protein CA): 400 ± 100 µM
Kd (GII.4 Saga P dimer; correction with ref. protein Cyt c): 160 ± 50 µM
Kd (GII.4 Saga P dimer; correction with ref. protein GFP): 900 ± 350 µM
Kd (GII.4 Saga P dimer; correction with ref. protein Myo): 250 ± 100 µM
Kd (GII.4 Saga P dimer; correction with ref. protein Ubq): 200 ± 130 µM
Bound number of carbohydrates on Saga P dimer (GII.4 Saga P dimer; ref. protein ADH, glycan 100 µM): 0
Bound number of carbohydrates on Saga P dimer (GII.4 Saga P dimer; ref. protein ADH, glycan 200 µM): 0
Bound number of carbohydrates on Saga P dimer (GII.4 Saga P dimer; ref. protein ADH, glycan 300 µM): 0
Bound number of carbohydrates on Saga P dimer (GII.4 Saga P dimer; ref. protein ADH, glycan 400 µM): 0
Bound number of carbohydrates on Saga P dimer (GII.4 Saga P dimer; ref. protein ADH, glycan 500 µM): 1
Bound number of carbohydrates on Saga P dimer (GII.4 Saga P dimer; ref. protein CA, glycan 100 µM): 1
Bound number of carbohydrates on Saga P dimer (GII.4 Saga P dimer; ref. protein CA, glycan 200 µM): 2
Bound number of carbohydrates on Saga P dimer (GII.4 Saga P dimer; ref. protein CA, glycan 300 µM): 2
Bound number of carbohydrates on Saga P dimer (GII.4 Saga P dimer; ref. protein CA, glycan 400 µM): 2
Bound number of carbohydrates on Saga P dimer (GII.4 Saga P dimer; ref. protein CA, glycan 500 µM): 2
Bound number of carbohydrates on Saga P dimer (GII.4 Saga P dimer; ref. protein Cyto c, glycan 100 µM): 2
Bound number of carbohydrates on Saga P dimer (GII.4 Saga P dimer; ref. protein Cyto c, glycan 200 µM): 3
Bound number of carbohydrates on Saga P dimer (GII.4 Saga P dimer; ref. protein Cyto c, glycan 300 µM): 4
Bound number of carbohydrates on Saga P dimer (GII.4 Saga P dimer; ref. protein Cyto c, glycan 400 µM): 4
Bound number of carbohydrates on Saga P dimer (GII.4 Saga P dimer; ref. protein Cyto c, glycan 500 µM): 4
Bound number of carbohydrates on Saga P dimer (GII.4 Saga P dimer; ref. protein GFP, glycan 100 µM): 1
Bound number of carbohydrates on Saga P dimer (GII.4 Saga P dimer; ref. protein GFP, glycan 200 µM): 1
Bound number of carbohydrates on Saga P dimer (GII.4 Saga P dimer; ref. protein GFP, glycan 300 µM): 2
Bound number of carbohydrates on Saga P dimer (GII.4 Saga P dimer; ref. protein GFP, glycan 400 µM): 2
Bound number of carbohydrates on Saga P dimer (GII.4 Saga P dimer; ref. protein GFP, glycan 500 µM): 2
Bound number of carbohydrates on Saga P dimer (GII.4 Saga P dimer; ref. protein LDH, glycan 100 µM): 0
Bound number of carbohydrates on Saga P dimer (GII.4 Saga P dimer; ref. protein LDH, glycan 200 µM): 0
Bound number of carbohydrates on Saga P dimer (GII.4 Saga P dimer; ref. protein LDH, glycan 300 µM): 0
Bound number of carbohydrates on Saga P dimer (GII.4 Saga P dimer; ref. protein LDH, glycan 400 µM): 0
Bound number of carbohydrates on Saga P dimer (GII.4 Saga P dimer; ref. protein LDH, glycan 500 µM): 1
Bound number of carbohydrates on Saga P dimer (GII.4 Saga P dimer; ref. protein Myo, glycan 100 µM): 2
Bound number of carbohydrates on Saga P dimer (GII.4 Saga P dimer; ref. protein Myo, glycan 200 µM): 3
Bound number of carbohydrates on Saga P dimer (GII.4 Saga P dimer; ref. protein Myo, glycan 300 µM): 3
Bound number of carbohydrates on Saga P dimer (GII.4 Saga P dimer; ref. protein Myo, glycan 400 µM): 3
Bound number of carbohydrates on Saga P dimer (GII.4 Saga P dimer; ref. protein Myo, glycan 500 µM): 4
Bound number of carbohydrates on Saga P dimer (GII.4 Saga P dimer; ref. protein Ubq, glycan 100 µM): 2
Bound number of carbohydrates on Saga P dimer (GII.4 Saga P dimer; ref. protein Ubq, glycan 200 µM): 3
Bound number of carbohydrates on Saga P dimer (GII.4 Saga P dimer; ref. protein Ubq, glycan 300 µM): 4
Bound number of carbohydrates on Saga P dimer (GII.4 Saga P dimer; ref. protein Ubq, glycan 400 µM): 4
Bound number of carbohydrates on Saga P dimer (GII.4 Saga P dimer; ref. protein Ubq, glycan 500 µM): 4
Bound number of carbohydrates on Saga P dimer (GII.4 Saga P dimer; ref. protein apo-TFF, glycan 100 µM): 1
Bound number of carbohydrates on Saga P dimer (GII.4 Saga P dimer; ref. protein apo-TFF, glycan 200 µM): 1
Bound number of carbohydrates on Saga P dimer (GII.4 Saga P dimer; ref. protein apo-TFF, glycan 300 µM): 1
Bound number of carbohydrates on Saga P dimer (GII.4 Saga P dimer; ref. protein apo-TFF, glycan 400 µM): 1
Bound number of carbohydrates on Saga P dimer (GII.4 Saga P dimer; ref. protein apo-TFF, glycan 500 µM): 2
Glycan-Clustering Ratio R ([1]; 100 µM glycan): 0.14±0.03
Glycan-Clustering Ratio R ([1]; 200 µM glycan): 0.18±0.02
Glycan-Clustering Ratio R ([1]; 300 µM glycan): 0.19±0.06
Glycan-Clustering Ratio R ([1]; 400 µM glycan): 0.31±0.04
Glycan-Clustering Ratio R ([1]; 500 µM glycan): 0.36 ± 0.05
Glycan-Clustering Ratio R ([2]; 100 µM glycan): 0.22±0.03
Glycan-Clustering Ratio R ([2]; 200 µM glycan): 0.32±0.05
Glycan-Clustering Ratio R ([2]; 300 µM glycan): 0.40±0.04
Glycan-Clustering Ratio R ([2]; 400 µM glycan): 0.60±0.05
Glycan-Clustering Ratio R ([2]; 500 µM glycan): 0.75 ± 0.07
Glycan-Clustering Ratio R ([3]; 100 µM glycan): 0.38±0.03
Glycan-Clustering Ratio R ([3]; 200 µM glycan): 0.54±0.05
Glycan-Clustering Ratio R ([3]; 300 µM glycan): 0.69±0.02
Glycan-Clustering Ratio R ([3]; 400 µM glycan): 0.77±0.05
Glycan-Clustering Ratio R ([3]; 500 µM glycan): 1.02 ± 0.04
